# According to patent US20180008573A1, “METHODS AND COMPOSITIONS FOR REDUCING DAMAGE ASSOCIATED WITH OXIDATIVE PHOSPHORYLATION” (USANA Health Sciences, Inc., priority 2016, published 2018):
# Legend:
# human PPARγ = molecular target: T1, human PPARγ (Homo sapiens, UniProt P37231); assay: PPARγ agonist reporter assay (Gal4 hybrid receptor, luciferase, CHO cells); type: cell-based
# T1 construct: expressed in transfected cells; host or cells: CHO
# T1 sequence (P37231 238-503 limits assumed): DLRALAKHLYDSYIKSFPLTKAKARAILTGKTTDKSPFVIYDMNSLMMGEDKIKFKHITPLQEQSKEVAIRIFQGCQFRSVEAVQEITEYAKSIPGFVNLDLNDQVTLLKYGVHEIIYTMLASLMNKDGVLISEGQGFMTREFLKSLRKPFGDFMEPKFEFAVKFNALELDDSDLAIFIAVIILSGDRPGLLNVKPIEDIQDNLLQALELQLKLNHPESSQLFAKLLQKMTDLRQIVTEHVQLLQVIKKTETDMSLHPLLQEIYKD
# Nrf2 = molecular target: T2, Nrf2 (Homo sapiens, UniProt Q16236); assay: Nrf2 signaling fluorescent reporter assay in human retinal epithelial cell line; type: cell-based; design: host or cells: human retinal epithelial cell line
# T2 sequence (Q16236 1-605): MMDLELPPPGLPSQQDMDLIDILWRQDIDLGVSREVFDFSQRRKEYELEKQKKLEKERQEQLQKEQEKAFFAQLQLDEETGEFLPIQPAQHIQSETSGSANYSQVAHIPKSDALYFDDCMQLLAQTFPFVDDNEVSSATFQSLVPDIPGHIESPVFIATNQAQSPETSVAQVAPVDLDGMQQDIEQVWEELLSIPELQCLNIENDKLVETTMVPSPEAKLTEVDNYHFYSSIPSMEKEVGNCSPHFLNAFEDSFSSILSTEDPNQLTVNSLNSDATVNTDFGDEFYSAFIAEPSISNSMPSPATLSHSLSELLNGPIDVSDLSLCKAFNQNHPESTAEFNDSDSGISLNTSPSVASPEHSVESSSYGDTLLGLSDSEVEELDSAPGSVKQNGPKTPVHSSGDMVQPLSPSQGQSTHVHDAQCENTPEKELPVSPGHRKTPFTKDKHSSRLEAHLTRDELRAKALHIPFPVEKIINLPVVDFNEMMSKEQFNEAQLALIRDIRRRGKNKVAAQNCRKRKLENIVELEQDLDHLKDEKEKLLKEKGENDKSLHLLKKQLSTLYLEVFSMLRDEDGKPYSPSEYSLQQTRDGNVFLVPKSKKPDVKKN
# human NF-κB = assay: NF-κB antagonist reporter assay (NF-κB GRE-luciferase, HEK293 cells); type: cell-based;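 further: reporter cells carry native NF-κB receptor with firefly luciferase under upstream response elements, with a vehicle control included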
# human PPARα = molecular target: T3, human PPARα (Homo sapiens, UniProt Q07869); assay: PPARα agonist reporter assay (Gal4 hybrid receptor, luciferase, CHO cells); type: cell-based
# T3 construct: expressed in transfected cells; host or cells: CHO
# T3 sequence (Q07869 239-466 limits assumed): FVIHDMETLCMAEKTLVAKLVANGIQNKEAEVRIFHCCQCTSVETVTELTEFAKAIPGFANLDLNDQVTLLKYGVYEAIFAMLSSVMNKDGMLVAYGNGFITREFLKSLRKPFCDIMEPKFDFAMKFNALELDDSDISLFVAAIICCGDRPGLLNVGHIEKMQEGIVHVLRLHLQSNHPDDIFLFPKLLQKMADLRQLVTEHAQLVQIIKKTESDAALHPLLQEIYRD
# NF-κB reporter cells = assay: Live cell multiplex assay in the NF-κB antagonist assay; type: cell-based, human
# Protocol: A vehicle control was prepared.
compound,measurement,setting,value
"O=C(O)CCCCC1CCSS1 (racemic) [Alpha lipoic acid, alpha lipoic acid]",PPARγ Fold-Activation,human PPARγ; 1.42 μg/ml active ingredient,1.1 fold
same,PPARγ Fold-Activation,human PPARγ; 4.25 μg/ml active ingredient,1.1 fold
same,PPARγ Fold-Activation,human PPARγ; 12.7 μg/ml active ingredient,1.3 fold
same,PPARγ Fold-Activation,human PPARγ; 38.23 μg/ml active ingredient,1.4 fold
same,PPARγ Fold-Activation,human PPARγ; 114.70 μg/ml active ingredient,3.4 fold
same,agonist activity against human PPARγ,human PPARγ; at the concentrations tested,very low-level agonist activity
same,induction concentration (PPARγ),human PPARγ; in the mixture,1.22 µg/mL
same,induction concentration (PPARγ),human PPARγ; used alone,114.8 µg/mL
same,activation of Nrf2,Nrf2; 100 μM and 30 μM against a control,demonstrated activation of Nrf2 at both 100 μM and 30 μM
same,minimum inducing concentration (Nrf2),Nrf2; human retinal epithelial cell line,1.75 µM
same,NF-κB % Inhibition,human NF-κB; 1.42 μg/ml active ingredient,3.1%
same,NF-κB % Inhibition,human NF-κB; 4.25 μg/ml active ingredient,−0.70%
same,NF-κB % Inhibition,human NF-κB; 12.7 μg/ml active ingredient,−6.1%
same,NF-κB % Inhibition,human NF-κB; 38.23 μg/ml active ingredient,5.9%
same,NF-κB % Inhibition,human NF-κB; 114.70 μg/ml active ingredient,−14%
same,PPARα Fold-Activation,human PPARα; 1.42 μg/ml active ingredient,1.4 fold
same,PPARα Fold-Activation,human PPARα; 4.25 μg/ml active ingredient,1.3 fold
same,PPARα Fold-Activation,human PPARα; 12.7 μg/ml active ingredient,1.2 fold
same,PPARα Fold-Activation,human PPARα; 38.23 μg/ml active ingredient,1.5 fold
same,PPARα Fold-Activation,human PPARα; 114.70 μg/ml active ingredient,2.3 fold
same,agonist activity against human PPARα,human PPARα; at the concentrations tested,very low-level agonist activity
same,NF-κB % Live Cell,NF-κB reporter cells; 1.42 μg/ml active ingredient,100%
same,NF-κB % Live Cell,NF-κB reporter cells; 4.25 μg/ml active ingredient,104%
same,NF-κB % Live Cell,NF-κB reporter cells; 12.7 μg/ml active ingredient,102%
same,NF-κB % Live Cell,NF-κB reporter cells; 38.23 μg/ml active ingredient,104%
same,NF-κB % Live Cell,NF-κB reporter cells; 114.70 μg/ml active ingredient,105%
